The results in this text go back to ChEMBL document CHEMBL1201862, “PubChem BioAssay data set” (2004).

Molecules are shown by their SMILES. The source made the active and inactive calls. A value given as a limit tells only on which side of the number the result lay.

Among the targets are Cytochrome P450 3A4 (Homo sapiens, UniProt P08684); Cytochrome P450 2C9 (Homo sapiens, UniProt P11712); Cytochrome P450 2D6 (Homo sapiens, UniProt P10635).
For series [1], the target named is Sphingosine 1-phosphate receptor 1 (Homo sapiens, UniProt P21453). Kind of series: Fluorescence-based counterscreen assay for S1P4 agonists: Cell-based dose response high throughput screening assay to identify agonists of the Sphingosine 1-Phosphate Receptor 1 (S1P1). [Related pubchem assays (depositor defined):AID1509, AID1523, AID1801, AID463107, AID463118, AID463119, AID463122, AID463123, AID463129, AID463225, AID504400, AID504460]. Type of series: functional. For orientation: Counterscreens check selectivity or assay interference.
Chain of Sphingosine 1-phosphate receptor 1 (P21453 whole entry): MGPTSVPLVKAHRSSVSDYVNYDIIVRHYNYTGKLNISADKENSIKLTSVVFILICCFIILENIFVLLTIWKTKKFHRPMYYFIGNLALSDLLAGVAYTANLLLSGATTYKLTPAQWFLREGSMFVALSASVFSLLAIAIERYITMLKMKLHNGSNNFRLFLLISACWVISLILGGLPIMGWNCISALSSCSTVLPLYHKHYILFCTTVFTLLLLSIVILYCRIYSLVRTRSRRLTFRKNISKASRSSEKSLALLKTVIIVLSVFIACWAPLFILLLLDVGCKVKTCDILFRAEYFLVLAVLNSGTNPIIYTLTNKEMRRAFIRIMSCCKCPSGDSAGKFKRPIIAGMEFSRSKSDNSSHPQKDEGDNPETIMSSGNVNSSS

Series [2] concerns the target Eukaryotic translation initiation factor 4E (Mus musculus, UniProt P63073). Kind of series: blockers of eIF4G binding by eIF4E – biochemical, TR-FRET, dose response (AID 855).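 Also: potency for disrupting eIF4E binding to eIF4GI seen as loss of FRET.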 In kind it is functional. (Time-resolved FRET reads energy transfer from a long-lived donor to a nearby acceptor.)
Series [3] addresses Voltage-dependent T-type calcium channel subunit alpha-1H (Homo sapiens, UniProt O95180). In kind it is functional.
The target of series [4] is T1, Sphingosine 1-phosphate receptor 4 (Homo sapiens, UniProt O95977).
T1 sequence (O95977 whole entry): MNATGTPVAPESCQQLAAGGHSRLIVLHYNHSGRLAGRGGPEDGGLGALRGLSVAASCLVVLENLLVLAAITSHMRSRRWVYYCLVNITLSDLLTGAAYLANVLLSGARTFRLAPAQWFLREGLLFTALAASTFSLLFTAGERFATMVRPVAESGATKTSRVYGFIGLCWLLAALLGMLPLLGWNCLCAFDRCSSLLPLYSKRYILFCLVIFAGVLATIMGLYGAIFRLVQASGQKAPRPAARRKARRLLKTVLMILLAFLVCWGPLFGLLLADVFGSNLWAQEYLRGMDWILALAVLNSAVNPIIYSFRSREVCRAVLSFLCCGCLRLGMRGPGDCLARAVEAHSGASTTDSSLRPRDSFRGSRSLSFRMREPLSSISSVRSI
Kind of series: Fluorescence dose response cell-based high throughput screening assay for agonists of the Sphingosine 1-Phosphate Receptor 4 (S1P4). [Related pubchem assays: 1509 (Primary screen.), 1523 (Confirmation screen in triplicates.)]. Type of series: functional.

The next series concerns the target Tumor necrosis factor (Homo sapiens, UniProt P01375). Kind of series: analog potency on TNFa NF-kB signaling – cell-based, revised, SAR follow-up (AID 2337). Type of series: functional.
Series [5] concerns the target Nucleotide-binding oligomerization domain-containing protein 2 (Homo sapiens, UniProt Q9HC29). Kind of series: PubChem AID 2334. Type of series: functional.
In series [6] the target is Nucleotide-binding oligomerization domain-containing protein 1 (Homo sapiens, UniProt Q9Y239). Kind of series: blockers of NOD1 pathway activity – revised, SAR follow-up (AID 2333). In kind it is functional.
For another series, the system named is HEK293. Kind of series: cells. To be noted: Homo sapiens.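 Also: cells exposed to compound for 14 hours overnight before viability readout.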
Series [7] has as its target T2, Delta-type opioid receptor (Homo sapiens, UniProt P41143). Kind of series: HTS Image-Based Screen for Antagonists of the DOR Receptor. [Related pubchem assays (depositor defined):AID1777, AID1785, AID1786, AID2133]. Type of series: functional.
In the next series the target is Mu-type opioid receptor (Homo sapiens, UniProt P35372). Kind of series: HTS Image-Based Screen for Agonists of the MOR Receptor. [Related pubchem assays (depositor defined):AID1777, AID1785, AID1786, AID2133]. Type of series: functional.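 Also: imaging of beta-arrestin GFP recruitment into spots after receptor activation.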
Chain of Mu-type opioid receptor (P35372 whole entry): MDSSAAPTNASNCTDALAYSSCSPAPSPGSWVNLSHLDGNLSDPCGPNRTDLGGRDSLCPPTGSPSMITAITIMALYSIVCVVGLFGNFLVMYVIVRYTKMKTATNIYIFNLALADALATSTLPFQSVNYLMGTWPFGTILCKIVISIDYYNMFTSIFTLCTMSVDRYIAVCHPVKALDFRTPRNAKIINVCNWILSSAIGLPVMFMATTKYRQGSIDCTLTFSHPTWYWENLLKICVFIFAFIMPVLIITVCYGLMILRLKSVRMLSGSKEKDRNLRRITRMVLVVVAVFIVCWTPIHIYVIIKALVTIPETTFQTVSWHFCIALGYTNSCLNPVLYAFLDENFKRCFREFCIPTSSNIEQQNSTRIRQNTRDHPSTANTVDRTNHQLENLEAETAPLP
In series [8] the target is T2, Delta-type opioid receptor. Kind of series: HTS Image-Based Screen for Agonists of the DOR Receptor. [Related pubchem assays (depositor defined):AID1777, AID1786, AID2133]. Type of series: functional.
The target in another series is Beta-galactosidase (Escherichia coli, UniProt Q8VNN2). Type of series: functional.
Chain of Beta-galactosidase (Q8VNN2 whole entry): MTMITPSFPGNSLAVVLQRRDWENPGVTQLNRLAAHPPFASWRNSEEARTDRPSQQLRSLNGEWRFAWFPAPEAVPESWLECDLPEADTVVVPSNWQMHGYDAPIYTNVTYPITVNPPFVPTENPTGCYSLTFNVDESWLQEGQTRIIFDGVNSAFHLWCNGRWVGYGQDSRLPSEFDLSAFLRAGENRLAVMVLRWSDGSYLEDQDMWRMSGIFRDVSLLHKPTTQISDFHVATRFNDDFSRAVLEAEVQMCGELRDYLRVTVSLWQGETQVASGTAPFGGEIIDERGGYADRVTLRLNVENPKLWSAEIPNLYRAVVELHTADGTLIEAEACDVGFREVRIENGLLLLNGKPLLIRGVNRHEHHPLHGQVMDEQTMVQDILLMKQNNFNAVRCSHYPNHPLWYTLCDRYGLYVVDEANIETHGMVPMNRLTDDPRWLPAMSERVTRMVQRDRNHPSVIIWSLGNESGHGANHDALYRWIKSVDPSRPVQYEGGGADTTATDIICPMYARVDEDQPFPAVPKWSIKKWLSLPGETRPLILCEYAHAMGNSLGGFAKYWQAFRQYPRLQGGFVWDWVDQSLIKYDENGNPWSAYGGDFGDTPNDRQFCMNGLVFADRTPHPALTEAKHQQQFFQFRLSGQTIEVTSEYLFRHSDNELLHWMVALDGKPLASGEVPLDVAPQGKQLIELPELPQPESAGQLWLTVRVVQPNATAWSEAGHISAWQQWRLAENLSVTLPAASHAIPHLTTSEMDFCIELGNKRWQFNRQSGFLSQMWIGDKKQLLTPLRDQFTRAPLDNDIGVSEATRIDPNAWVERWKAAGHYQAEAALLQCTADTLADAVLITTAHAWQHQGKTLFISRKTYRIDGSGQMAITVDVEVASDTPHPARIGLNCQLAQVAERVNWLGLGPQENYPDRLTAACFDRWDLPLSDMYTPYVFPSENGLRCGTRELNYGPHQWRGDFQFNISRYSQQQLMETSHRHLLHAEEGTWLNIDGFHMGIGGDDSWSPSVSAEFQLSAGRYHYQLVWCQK
For series [9], the target named is T3, Kappa-type opioid receptor (Homo sapiens, UniProt P41145). Type of series: functional.
T3 sequence (P41145 whole entry): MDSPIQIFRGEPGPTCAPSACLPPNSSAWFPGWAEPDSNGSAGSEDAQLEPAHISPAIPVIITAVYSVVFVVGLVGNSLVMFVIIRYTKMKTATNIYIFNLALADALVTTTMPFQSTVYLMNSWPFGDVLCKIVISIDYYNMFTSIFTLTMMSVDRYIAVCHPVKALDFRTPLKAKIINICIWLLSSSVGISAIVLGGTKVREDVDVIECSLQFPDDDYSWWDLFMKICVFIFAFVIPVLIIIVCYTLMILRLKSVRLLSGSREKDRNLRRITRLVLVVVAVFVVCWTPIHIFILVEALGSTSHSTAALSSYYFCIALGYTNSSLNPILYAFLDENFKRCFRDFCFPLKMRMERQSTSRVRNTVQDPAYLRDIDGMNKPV
For series [10], the target named is T3, Kappa-type opioid receptor. In kind it is functional. The source holds these as a separate data set.
The next series relates to Vero. Kind of series: viability of Vero cells under compound – cytotoxicity control for flavivirus capping enzyme inhibitors (AID 588742). To be noted: Chlorocebus sabaeus. Type of series: functional.
Series [11] concerns the target T4, Replicative DNA helicase DnaB (Mycobacterium tuberculosis, UniProt P9WMR3).
T4 sequence (P9WMR3 whole entry): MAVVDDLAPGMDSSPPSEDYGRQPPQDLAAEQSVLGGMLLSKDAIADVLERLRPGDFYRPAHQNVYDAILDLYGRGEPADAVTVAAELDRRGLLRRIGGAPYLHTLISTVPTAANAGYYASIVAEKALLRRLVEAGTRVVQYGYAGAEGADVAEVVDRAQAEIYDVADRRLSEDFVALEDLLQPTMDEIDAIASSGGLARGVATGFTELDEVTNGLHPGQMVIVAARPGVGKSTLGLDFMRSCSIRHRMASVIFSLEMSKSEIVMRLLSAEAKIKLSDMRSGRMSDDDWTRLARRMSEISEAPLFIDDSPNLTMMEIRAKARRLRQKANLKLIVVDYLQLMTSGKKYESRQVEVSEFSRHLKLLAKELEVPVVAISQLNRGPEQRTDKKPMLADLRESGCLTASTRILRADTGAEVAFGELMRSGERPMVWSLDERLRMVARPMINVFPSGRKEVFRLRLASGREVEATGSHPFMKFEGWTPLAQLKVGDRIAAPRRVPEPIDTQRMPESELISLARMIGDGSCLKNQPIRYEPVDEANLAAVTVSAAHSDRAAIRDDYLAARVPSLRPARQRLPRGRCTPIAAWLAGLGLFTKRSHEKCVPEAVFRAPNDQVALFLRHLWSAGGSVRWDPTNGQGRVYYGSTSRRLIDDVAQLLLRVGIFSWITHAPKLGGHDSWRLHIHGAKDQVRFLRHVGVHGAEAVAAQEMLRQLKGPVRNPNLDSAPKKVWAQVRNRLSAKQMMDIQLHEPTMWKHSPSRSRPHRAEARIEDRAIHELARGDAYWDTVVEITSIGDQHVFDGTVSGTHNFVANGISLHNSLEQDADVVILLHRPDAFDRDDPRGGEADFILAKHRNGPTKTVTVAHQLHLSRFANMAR
Kind of series: DnaB intein splicing inhibitors, dose response, biochemical, cell-free fluorescence (AID 449749). In kind it is functional.

Series [12] has as its target T5, Ubiquitin-conjugating enzyme E2 N (Homo sapiens, UniProt P61088).
T5 sequence (P61088 whole entry): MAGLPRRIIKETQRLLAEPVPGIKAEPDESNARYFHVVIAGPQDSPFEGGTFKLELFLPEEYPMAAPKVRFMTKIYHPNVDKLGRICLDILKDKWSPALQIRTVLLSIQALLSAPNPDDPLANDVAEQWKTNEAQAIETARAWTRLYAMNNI
Type of series: functional.

Series [13] is described as follows: non-specific 3'UTR reporter inhibition in Clone20-Shn3RL – cell-based, Renilla luciferase, cherry-picked, counter-screen for Shn3 inhibitor project, dose response (AID 624133). In kind it is functional.
The nature of series [14]: reduction of Shn3 3'UTR-driven luciferase in osteoblasts – cell-based, Clone20 osteoblasts, firefly luciferase, cherry-picked, dose response (AID 624132).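 Also: firefly luciferase luminescence from reporter carrying the Shn3 3'UTR in osteoblasts.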 In kind it is functional.
The target of series [15] is T5, Ubiquitin-conjugating enzyme E2 N. In kind it is functional. This is another data set of the same source.
The next series addresses Genome polyprotein (dengue virus type 2, UniProt P29990). Kind of series: flavivirus cap methylation enzyme inhibition – biochemical, confirmation dose response, primary screen (AID 588689). In kind it is functional.
The nature of series [16]: Intein inhibitors as potential Tuberculosis drugs, a cytotoxicity screen. [Related pubchem assays (depositor defined):AID2221, AID2223, AID434968, AID435010, AID449749, AID449750, AID489010]. Type of series: functional.
The target in another series is T6, Protein RecA (Mycobacterium tuberculosis, UniProt P9WHJ3).
T6 sequence (P9WHJ3 whole entry): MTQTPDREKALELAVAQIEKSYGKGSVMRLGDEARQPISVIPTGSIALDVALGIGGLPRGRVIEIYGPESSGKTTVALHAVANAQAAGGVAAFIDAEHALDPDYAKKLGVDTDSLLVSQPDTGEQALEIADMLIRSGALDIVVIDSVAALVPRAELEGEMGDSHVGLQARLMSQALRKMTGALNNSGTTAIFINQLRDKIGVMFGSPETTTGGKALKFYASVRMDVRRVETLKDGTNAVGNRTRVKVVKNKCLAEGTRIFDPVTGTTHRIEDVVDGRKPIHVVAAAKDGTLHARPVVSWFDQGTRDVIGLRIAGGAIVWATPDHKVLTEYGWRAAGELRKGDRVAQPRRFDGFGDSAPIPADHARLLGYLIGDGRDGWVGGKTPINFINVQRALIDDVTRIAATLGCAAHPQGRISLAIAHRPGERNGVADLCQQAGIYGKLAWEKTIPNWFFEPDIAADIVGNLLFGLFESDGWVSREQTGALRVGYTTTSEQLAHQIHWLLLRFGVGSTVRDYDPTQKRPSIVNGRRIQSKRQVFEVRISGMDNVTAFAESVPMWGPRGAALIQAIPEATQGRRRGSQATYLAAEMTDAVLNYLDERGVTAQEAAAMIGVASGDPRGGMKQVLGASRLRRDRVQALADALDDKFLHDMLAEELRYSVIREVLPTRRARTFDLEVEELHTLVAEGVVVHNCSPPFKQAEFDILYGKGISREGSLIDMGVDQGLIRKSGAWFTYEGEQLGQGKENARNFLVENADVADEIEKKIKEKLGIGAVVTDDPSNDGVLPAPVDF
Kind of series: Fluorescence Cell-Free Homogeneous Dose Retest to Identify Inhibitors of RecA-Intein Splicing Activity. [Related pubchem assays (depositor defined):AID2097, AID2223, AID489010, AID492950]. Type of series: functional.

Series [17] addresses Hepatocyte nuclear factor 4-alpha (Homo sapiens, UniProt P41235). Type of series: functional, cell-based.
The next series addresses T7, Bcl-2-related protein A1 (Mus musculus, UniProt Q07440).
T7 sequence (Q07440 whole entry): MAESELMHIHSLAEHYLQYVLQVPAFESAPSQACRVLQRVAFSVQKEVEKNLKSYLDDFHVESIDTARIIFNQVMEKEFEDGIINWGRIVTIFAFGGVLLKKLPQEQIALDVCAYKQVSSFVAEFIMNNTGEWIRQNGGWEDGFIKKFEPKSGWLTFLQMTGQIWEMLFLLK
In kind it is functional.

Another series has as its target T8, Cytochrome P450 1A2 (Homo sapiens, UniProt P05177).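 Also: PubChem cytochrome P450 panel assay, CYP1A2 panel member.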
T8 sequence (P05177 whole entry): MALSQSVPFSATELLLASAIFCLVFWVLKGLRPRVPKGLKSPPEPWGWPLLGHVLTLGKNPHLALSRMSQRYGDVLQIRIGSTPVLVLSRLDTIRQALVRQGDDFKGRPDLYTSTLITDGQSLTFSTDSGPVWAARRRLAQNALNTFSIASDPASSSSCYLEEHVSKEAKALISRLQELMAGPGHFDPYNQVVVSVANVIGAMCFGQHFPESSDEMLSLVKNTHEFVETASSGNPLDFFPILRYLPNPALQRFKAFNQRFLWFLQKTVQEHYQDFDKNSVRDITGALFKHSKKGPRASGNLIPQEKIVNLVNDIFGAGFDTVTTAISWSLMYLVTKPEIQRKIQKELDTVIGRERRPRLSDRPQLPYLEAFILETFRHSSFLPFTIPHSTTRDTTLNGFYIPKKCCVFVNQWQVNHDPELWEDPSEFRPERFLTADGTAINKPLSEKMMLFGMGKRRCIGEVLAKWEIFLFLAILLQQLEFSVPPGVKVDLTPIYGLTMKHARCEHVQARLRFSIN

The target in a further series is Cytochrome P450 2C19 (Homo sapiens, UniProt P33261). Kind of series: Cytochrome panel assay with activity outcomes. Panel member name: p450-cyp2c19 Compounds with AC50 equal or less than 10 uM are considered active. In kind it is functional.

T2 sequence (P41143 whole entry): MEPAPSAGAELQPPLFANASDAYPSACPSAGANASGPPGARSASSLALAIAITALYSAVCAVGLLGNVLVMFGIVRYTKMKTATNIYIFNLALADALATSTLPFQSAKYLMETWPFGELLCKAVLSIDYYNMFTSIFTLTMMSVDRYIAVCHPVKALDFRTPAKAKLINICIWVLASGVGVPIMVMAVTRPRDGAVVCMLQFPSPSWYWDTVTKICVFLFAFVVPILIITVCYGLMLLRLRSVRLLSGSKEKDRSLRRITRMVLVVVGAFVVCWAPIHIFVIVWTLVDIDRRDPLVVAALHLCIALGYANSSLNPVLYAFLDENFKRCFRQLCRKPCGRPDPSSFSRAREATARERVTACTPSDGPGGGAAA
Chain of Cytochrome P450 2C9 (P11712 whole entry): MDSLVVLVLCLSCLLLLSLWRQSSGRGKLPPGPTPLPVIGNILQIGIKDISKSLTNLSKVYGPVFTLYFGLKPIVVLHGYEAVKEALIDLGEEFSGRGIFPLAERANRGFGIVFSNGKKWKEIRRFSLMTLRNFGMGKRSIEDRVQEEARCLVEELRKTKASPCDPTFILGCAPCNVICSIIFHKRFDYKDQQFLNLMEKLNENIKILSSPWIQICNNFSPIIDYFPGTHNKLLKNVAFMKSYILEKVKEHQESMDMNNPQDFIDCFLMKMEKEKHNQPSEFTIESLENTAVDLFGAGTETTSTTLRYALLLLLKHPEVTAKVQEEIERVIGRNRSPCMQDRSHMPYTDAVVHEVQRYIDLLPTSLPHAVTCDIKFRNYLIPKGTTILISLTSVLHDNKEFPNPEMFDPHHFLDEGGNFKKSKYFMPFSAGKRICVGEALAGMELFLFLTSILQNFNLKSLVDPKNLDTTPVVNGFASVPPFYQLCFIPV
Chain of Tumor necrosis factor (P01375 whole entry, the tested form may be a part): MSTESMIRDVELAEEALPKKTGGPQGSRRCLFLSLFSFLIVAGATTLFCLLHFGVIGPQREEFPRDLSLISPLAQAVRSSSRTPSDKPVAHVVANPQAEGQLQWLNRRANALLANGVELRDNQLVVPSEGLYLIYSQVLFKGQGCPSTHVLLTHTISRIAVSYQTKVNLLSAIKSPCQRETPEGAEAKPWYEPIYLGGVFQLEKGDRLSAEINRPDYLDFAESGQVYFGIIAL
Chain of Cytochrome P450 2D6 (P10635 whole entry): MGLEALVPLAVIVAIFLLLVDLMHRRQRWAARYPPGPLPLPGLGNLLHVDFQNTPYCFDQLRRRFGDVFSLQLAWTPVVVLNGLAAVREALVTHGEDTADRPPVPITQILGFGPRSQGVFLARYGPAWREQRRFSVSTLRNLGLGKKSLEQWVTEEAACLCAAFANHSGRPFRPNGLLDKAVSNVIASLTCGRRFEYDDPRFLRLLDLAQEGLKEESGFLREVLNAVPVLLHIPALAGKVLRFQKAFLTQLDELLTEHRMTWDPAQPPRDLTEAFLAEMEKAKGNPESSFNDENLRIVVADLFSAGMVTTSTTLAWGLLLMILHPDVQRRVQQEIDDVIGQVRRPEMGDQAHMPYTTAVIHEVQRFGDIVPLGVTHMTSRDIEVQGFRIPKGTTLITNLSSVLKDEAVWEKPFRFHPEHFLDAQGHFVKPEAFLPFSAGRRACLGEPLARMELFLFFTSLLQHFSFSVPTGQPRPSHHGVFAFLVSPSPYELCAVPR
Chain of Genome polyprotein (P29990 2492-3391 limits assumed): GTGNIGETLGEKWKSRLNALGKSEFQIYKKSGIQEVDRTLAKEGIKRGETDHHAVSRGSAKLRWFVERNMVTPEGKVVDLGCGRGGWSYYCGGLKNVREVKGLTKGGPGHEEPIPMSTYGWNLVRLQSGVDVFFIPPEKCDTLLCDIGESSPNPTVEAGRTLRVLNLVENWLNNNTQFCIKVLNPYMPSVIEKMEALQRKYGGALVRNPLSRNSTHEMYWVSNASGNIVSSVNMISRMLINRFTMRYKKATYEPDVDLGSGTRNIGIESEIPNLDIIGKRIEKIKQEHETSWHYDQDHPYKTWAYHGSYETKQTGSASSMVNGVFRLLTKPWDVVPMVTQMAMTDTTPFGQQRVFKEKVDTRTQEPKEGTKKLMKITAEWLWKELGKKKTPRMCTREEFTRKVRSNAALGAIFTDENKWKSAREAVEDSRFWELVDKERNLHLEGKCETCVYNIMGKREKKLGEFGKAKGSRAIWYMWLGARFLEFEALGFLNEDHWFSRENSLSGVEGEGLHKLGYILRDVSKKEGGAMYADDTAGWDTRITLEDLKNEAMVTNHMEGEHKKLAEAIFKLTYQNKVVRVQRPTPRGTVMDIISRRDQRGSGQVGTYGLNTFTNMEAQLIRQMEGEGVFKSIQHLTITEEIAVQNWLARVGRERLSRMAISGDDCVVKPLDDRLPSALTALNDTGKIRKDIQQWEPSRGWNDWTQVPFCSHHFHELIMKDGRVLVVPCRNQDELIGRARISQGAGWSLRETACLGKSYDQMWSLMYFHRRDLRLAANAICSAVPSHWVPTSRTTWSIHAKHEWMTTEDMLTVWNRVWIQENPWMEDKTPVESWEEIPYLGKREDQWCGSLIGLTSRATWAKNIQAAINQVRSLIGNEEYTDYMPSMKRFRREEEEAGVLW
Chain of Eukaryotic translation initiation factor 4E (P63073 whole entry): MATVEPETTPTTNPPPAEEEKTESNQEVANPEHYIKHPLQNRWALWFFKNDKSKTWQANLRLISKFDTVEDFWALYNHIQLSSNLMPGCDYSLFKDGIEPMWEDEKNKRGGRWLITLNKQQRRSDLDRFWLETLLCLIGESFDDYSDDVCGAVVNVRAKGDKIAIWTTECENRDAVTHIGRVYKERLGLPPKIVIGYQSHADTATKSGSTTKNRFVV

As usually defined, the EC50 is the concentration giving half of the maximal effect. What is called IC50 is the point on the concentration scale where inhibition reaches its midpoint. For `CCOc1ccccc1OCCCCCc1c(C)n[nH]c1C`, the results for the EC50 in series [1], in series [3] and in [4] were > 49.8 µM (inactive), 8.55 µM (active) and > 49.8 µM (not active), respectively. Besides, the IC50 in series [2] was > 64 µM (inactive).

With `O=C(Nc1nc2ccccc2n1Cc1ccccc1Cl)c1cccs1`, the IC50 (at Tumor necrosis factor; in series [5]; in series [6]; in the series on HEK293) was > 20 µM (inactive) in each case.

Turning to `CCc1nc2sc3c(Cl)ncnc3c2c2c1CCCC2`, the results for the IC50 in series [7], in [9] and in series [10] were > 32 µM (inactive), 5.42 µM (active) and more than 32 µM, respectively. Also, the results for the EC50 (at Mu-type opioid receptor; in series [8]; on Beta-galactosidase) were > 32 µM (inactive), > 32 µM (inactive) and > 31.5 µM (inactive), respectively.

The term CC50 denotes the concentration giving 50% cytotoxicity. By AC50 is commonly meant the concentration at which the activity in the assay is half-maximal. Turning to `Cc1ccc(CS(=O)(=O)c2ncc(Cl)c(C(=O)Nc3nnc(C(C)C)s3)n2)cc1`, the CC50 in the series on Vero was 29.1 µM (active); in series [16] it was 28.3 µM (active). Further, the AC50 in [11] was 2.95 µM (active); in series [13], 4.07 µM (active); in [14], 1.52 µM (active). Moreover, the IC50 in [12] is 10.7 µM (active); in [15], > 20 µM (inactive); on Genome polyprotein it was > 100 µM (active); in series [17] it was 3.27 µM (active); on Bcl-2-related protein A1, > 20 µM (inactive). Moreover, the EC50 at Protein RecA was 717 nM (active).

Consider `O=C(O[C@H]1C[N@+]2(Br)CC[C@@H]1CC2)C(O)(c1ccccc1)c1ccccc1`, for which the AC50 entry at Cytochrome P450 3A4, at Cytochrome P450 1A2, at Cytochrome P450 2C9, on Cytochrome P450 2D6 and at Cytochrome P450 2C19 was “inactive” each time.
